According to patent publication EP4656642A1, “ESTROGEN RECEPTOR PROTEOLYSIS TARGETING CHIMERA COMPOUND AND USE THEREOF” (GAN & LEE PHARM CO., LTD, priority 2023, dated 2024):

What was measured:
Assay type in all cases: cell-based
T-47D cells = test: Inhibition of cell proliferation in T-47D cells (CCK-8, 6 days); settings: 6 days of treatment
In short: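 T-47D cells at 3,000 cells/well in RPMI 1640 with 10% FBS were exposed to a concentration series of PROTAC compounds for 6 days at 37 °C, 5% CO2. Viability was read by CCK-8, and IC50 values were derived for proliferation inhibition.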

ERα [1] = target: T1, ERα (Homo sapiens, UniProt P03372); test: Degradation of ERα in MCF-7 cells (immunoblotting, 4 h)
T1 sequence (P03372 1-595): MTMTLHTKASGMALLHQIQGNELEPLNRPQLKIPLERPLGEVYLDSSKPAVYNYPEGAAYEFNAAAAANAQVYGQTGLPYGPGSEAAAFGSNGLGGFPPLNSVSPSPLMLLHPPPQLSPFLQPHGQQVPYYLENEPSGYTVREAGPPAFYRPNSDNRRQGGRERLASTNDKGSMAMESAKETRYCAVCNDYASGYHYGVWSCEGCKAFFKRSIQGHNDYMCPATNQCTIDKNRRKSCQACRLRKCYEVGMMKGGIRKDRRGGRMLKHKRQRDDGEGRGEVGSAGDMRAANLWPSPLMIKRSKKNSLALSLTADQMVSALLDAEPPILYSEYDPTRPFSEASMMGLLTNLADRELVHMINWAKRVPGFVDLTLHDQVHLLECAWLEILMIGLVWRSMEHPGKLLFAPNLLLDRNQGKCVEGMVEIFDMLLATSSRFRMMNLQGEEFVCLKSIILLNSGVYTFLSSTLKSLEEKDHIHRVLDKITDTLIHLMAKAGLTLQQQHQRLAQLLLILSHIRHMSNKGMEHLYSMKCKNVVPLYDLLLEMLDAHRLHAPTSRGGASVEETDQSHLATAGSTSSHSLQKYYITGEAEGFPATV
In short: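 MCF-7 cells treated 4 h at 37°C with compounds at 0.15-1000nM final. ERα in lysates measured by immunoblot, with band grayscale normalized to an internal reference protein. Degradation rate calculated against DMSO-treated control.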

ERα [2] = target: T1, ERα; test: Degradation of ERα in T-47D cells (immunoblotting, 4 h); parameters: host or cells: T-47D
In short: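 T-47D cells were treated with compound (final 0.15-1000 nM, DMSO) for 4 h at 37°C, 5% CO2. Cells were lysed in RIPA buffer with protease inhibitor, and ERα protein in the cleared lysate was measured by immunoblotting.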

MCF-7 cells = test: Inhibition of cell proliferation of MCF-7 cells (CCK-8, 9 days)
In short: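 MCF-7 cells seeded at 800 cells/well in DMEM with 10% FBS, exposed to a range of compound concentrations for 9 days at 37°C, 5% CO2. Viability read by CCK-8; IC50 derived for proliferation inhibition.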

[3] = treated for 9 days, CCK-8 kit (Table 6)

Row | SMILES | IC50 (T-47D cells; Table 3) | Degradation rate (%) of ERα in MCF-7 cells (ERα [1]; 1nM compound) | Degradation rate (%) of ERα in MCF-7 cells (ERα [1]; 10nM compound) | Degradation rate (%) of ERα in T-47D cells (ERα [2]; 1nM compound) | Degradation rate (%) of ERα in T-47D cells (ERα [2]; 10nM compound) | IC50 (MCF-7 cells; [3]) | IC50 (T-47D cells; Table 2) | IC50 (MCF-7 cells; 9 days of treatment, CCK-8, Table 5)
1 | C[C@H]1CN(c2ccc([C@@H]3c4ccc(O)cc4CC[C@@H]3c3ccccc3)cc2)CCN1C[C@H]1CC[C@H](C(=O)N2CCC3(CC2)COc2c3ccc3c2CN(C2CCC(=O)NC2=O)C3=O)CC1 (stereo partly drawn) [B36] | 1.03 nM | 55% | 55% | 54% | 68% | 21700 nM |  | 
2 | CN(C1CCN(c2ccc([C@@H]3c4ccc(O)cc4CC[C@@H]3c3ccccc3)cc2)CC1)[C@H]1CC[C@H](C(=O)N2CCC3(CC2)COc2c3ccc3c2CN(C2CCC(=O)NC2=O)C3=O)CC1 (stereo partly drawn) [N2] | 3.63 nM | -7% | -8% | 10% | 42% | 247 nM |  | 
3 | O=C1CCC(N2Cc3c(ccc4c3OCC43CCN(C4CCN(C5CC6(CCN(c7ccc([C@@H]8c9ccc(O)cc9CC[C@@H]8c8ccccc8)cc7)CC6)C5)[C@@H](C(=O)N5CC(F)(F)C5)C4)CC3)C2=O)C(=O)N1 (stereo partly drawn) [A98] | 1.19 nM | 48% | 90% | 51% | 83% | 5.12 nM |  | 
4 | C[C@@H]1Cc2c([nH]c3ccccc23)[C@@H](c2c(F)cc(N3CC4(CCC(N5CCC6(CC5)COc5c6ccc6c5CN(C5CCC(=O)NC5=O)C6=O)CC4)C3)cc2F)N1CC(F)F (stereo partly drawn) [A104] | 17.1 nM | 15% | 70% | 35% | 72% | 30.3 nM |  | 
5 | O=C1CCC(N2Cc3ccc4c(c3C2=O)OC2(CC4)CCN(C3CCC4(CC3)CCN(c3ccc([C@@H]5c6ccc(O)cc6CC[C@@H]5c5ccccc5)cc3)CC4)CC2)C(=O)N1 (stereo partly drawn) [L1] |  | -2% | -29% | -9% | -45% |  | 5.2 nM | 130 nM
6 | CCOC(=O)[C@H]1CC(N2CCC3(CC2)COc2c3ccc3c2CN(C2CCC(=O)NC2=O)C3=O)CCN1C1CC2(CCN(c3ccc([C@@H]4c5ccc(O)cc5CC[C@@H]4c4ccccc4)cc3)CC2)C1 (stereo partly drawn) [A113] | 4.61 nM | 4% | 52% | 26% | 64% | 21.6 nM |  | 
7 | O=C1CCC(N2C(=O)c3cc4c(cc3C2=O)OCC2(CCN(CC3CCC5(CC3)CCN(c3ccc([C@@H]6c7ccc(O)cc7CC[C@@H]6c6ccccc6)cc3)CC5)CC2)C4)C(=O)N1 (stereo partly drawn) [A42] | 60 nM | -49% | -36% | 41% | 30% | 38 nM |  | 
8 | O=C1CCC(N2Cc3cc4c(cc3C2=O)CCC2(CN(C(=O)C3CCC5(CC3)CN(c3ccc([C@@H]6c7ccc(O)cc7CC[C@@H]6c6ccccc6)cc3)C5)C2)O4)C(=O)N1 (stereo partly drawn) [A46] | 10.6 nM | -22% | -26% | 7% | 33% | 1250 nM |  | 
9 | O=C1CCC(N2C(=O)c3ccc4c(c3C2=O)OC2(CC4)CCN(C3CCC4(CC3)CN(c3ccc([C@@H]5c6ccc(O)cc6CC[C@@H]5c5ccccc5)cc3)C4)CC2)C(=O)N1 (stereo partly drawn) [L8] | 13.5 nM | 27% | 27% | 32% | 21% | 990 nM |  | 
10 | O=C1CCC(N2Cc3c(ccc4c3OCC43CCN(C(=O)c4ccc(CN5CCN(c6ccc([C@@H]7c8ccc(O)cc8CC[C@@H]7c7ccccc7)cc6)CC5)cc4)CC3)C2=O)C(=O)N1 (stereo partly drawn) [B39] | 1.83 nM | 41% | 49% | 47% | 66% | 25100 nM |  | 
11 | O=C1CCC(N2Cc3cc4c(cc3C2=O)OC2(CC4)CN(C(=O)[C@H]3CC[C@H](CN4CCN(c5ccc([C@@H]6c7ccc(O)cc7CC[C@@H]6c6ccccc6)cc5)CC4)CC3)C2)C(=O)N1 (stereo partly drawn) [C8] | 0.99 nM | 29% | 40% | 60% | 78% | 2730 nM |  | 
12 | C[C@H]1CN(C2CC3(CCN(c4ccc([C@@H]5c6ccc(O)cc6CC[C@@H]5c5ccccc5)cc4)CC3)C2)CC[C@H]1N1CCC2(CC1)COc1c2ccc2c1CN(C1CCC(=O)NC1=O)C2=O (stereo partly drawn) [H39] | 3.38 nM | 20% | 71% | 15% | 64% | 65.2 nM |  | 
13 | O=C1CCC(N2Cc3ccc4c(c3C2=O)OCC2(CCN(CC3CCN(c5ccc([C@@H]6c7ccc(O)cc7CC[C@@H]6c6ccccc6)cc5)CC3)CC2)C4)C(=O)N1 (stereo partly drawn) [H5] | 22.4 nM | -3% | -12% | 18% | 12% | 2260 nM |  | 
14 | O=C1CCC(N2Cc3cc4c(cc3C2=O)OC2(CC4)CN(C3CCN(C(=O)c4ccc([C@@H]5c6ccc(O)cc6CC[C@@H]5c5ccccc5)cc4)CC3)C2)C(=O)N1 (stereo partly drawn) [H11] | 124 nM | -39% | -41% | -16% | 8% | 24100 nM |  | 
15 | CCC(C(=O)N1CCC2(CC1)COc1c2ccc2c1CN(C1CCC(=O)NC1=O)C2=O)N1CCC2(CCN(c3ccc([C@@H]4c5ccc(O)cc5CC[C@@H]4c4ccccc4)cc3)CC2)C1 (stereo partly drawn) [A95] | 1.49 nM | 42% | 48% | 52% | 68% | 201 nM |  | 
16 | O=C1CCC(N2Cc3c(ccc4c3OCC43CCN(C4CCN(C(=O)C5CCN(c6ccc([C@@H]7c8ccc(O)cc8CC[C@@H]7c7ccccc7)cc6)CC5)CC4F)CC3)C2=O)C(=O)N1 (stereo partly drawn) [H42] | 1.32 nM | 49% | 77% | 37% | 73% | 9.28 nM |  | 
17 | O=C1CCC(N2Cc3c(ccc4c3OCC43CCN(C(=O)c4ccc(CN5CCN(c6ccc([C@@H]7c8ccc(O)cc8CC[C@@H]7c7ccccc7)cc6)CC5)cn4)CC3)C2=O)C(=O)N1 (stereo partly drawn) [B41] | 0.75 nM | 59% | 53% | 66% | 74% | 29200 nM |  | 
